{
  "source": "patent US20020115211A1",
  "about": "“A METHOD FOR IN VITRO MATURATION OF HUMAN GAMETES” (MEDI-CULT A/S, priority 1998, published 2002)",
  "origin": "cited, not measured here",
  "test_system": "immature human gametes",
  "conditions": "presence in the culture medium; recent research",
  "data": [
    {"substance": "insulin: Component of the SSR media additives", "values": [
      {"measurement": "effect on the chance for successful pregnancy", "result": "negative effect"}
    ]}
  ]
}
